# Like-named read-outs stand apart in the source and are kept apart here.
# Legend:
# chimeric α2α1 GlyR = target: T1, chimeric α2α1 GlyR (Rattus norvegicus, UniProt P07727+P22771, A288G/A330S/F348L/L351F/V274I); assay type: cell-based
# T1 construct: Relevance of the ECD for the subunit-specific actions of gelsemine on α1GlyRs; fusion partner: GlyR α1 transmembrane and C-terminal part (Glra1, printed Q546L7); expressed in transfected cells; host or cells: HEK293 (ATCC CRL-1573)
# T1 sequence (P22771+P07727 with tags, fused parts or gaps P22771:V274I/P22771:A288G/P22771:A330S/P22771:F348L/P22771:L351F): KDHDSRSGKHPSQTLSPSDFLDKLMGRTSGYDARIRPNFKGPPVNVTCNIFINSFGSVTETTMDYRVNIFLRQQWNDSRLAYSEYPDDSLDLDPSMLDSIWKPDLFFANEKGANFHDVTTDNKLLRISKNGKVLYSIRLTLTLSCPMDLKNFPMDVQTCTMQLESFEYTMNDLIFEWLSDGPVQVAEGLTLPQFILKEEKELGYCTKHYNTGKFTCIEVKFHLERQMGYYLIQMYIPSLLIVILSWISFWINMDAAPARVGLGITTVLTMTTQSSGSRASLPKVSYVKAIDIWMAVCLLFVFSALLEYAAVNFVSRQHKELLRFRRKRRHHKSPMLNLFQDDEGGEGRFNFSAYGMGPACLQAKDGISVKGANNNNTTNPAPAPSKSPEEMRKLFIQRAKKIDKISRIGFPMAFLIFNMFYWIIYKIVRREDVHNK
# Experimental: (§1) The cells were transfected with plasmids encoding the following proteins: (i). rat GlyR α (1, 2, 3) subunits alone or combined with rat β subunits (Uniprot Accession Numbers: Q546L7, P22771, P20236, P20781); and (ii). rat GABAAR α1 combined with rat β2 and γ2 subunits (Uniprot Accession Numbers: P62813, P63138, P18508). The EGFP expression was used as a marker of successful protein expression. The transfection was performed using Lipofectamine 2000 (Invitrogen, ThermoFisher, Carlsbad, CA, USA) using the fabricant protocol. The plasmids used to express GlyRs and GABAARs have been previously described. To track the successful expression of GlyR β subunits and the GABAA γ2 or β2 subunit, these proteins were subcloned in the pIRES2-EGFP vector. The transfection ratio to obtain β-containing GlyRs was 1:5 of α:β, while the expression of γ2-containing GABAA receptors was 1:2:5 of α:β:γ2 [14, 15]. Chimeric GlyRs were described in a previous report. Site directed mutagenesis was performed by Charm Gene Science Mutagenex LLC. (Cumming, GA, USA). All the constructs were checked by full-length sequencing (SNPSaurus, Eugene, OR, USA).
# In brief, patch electrodes (3–4 MΩ) were pulled from borosilicate glasses in a PC-100 puller (Narishige, Tokyo, Japan); then, they were filled with an intracellular solution, which contained (in mM) 120 CsCl, 8 EGTA, 10 HEPES (pH 7.4), 4 MgCl2, 0.5 GTP, and 2 ATP. The extracellular solution contained (in mM) 140 NaCl, 5.4 KCl, 2.0 CaCl2, 1.0 MgCl2, 10 HEPES (pH 7.4), and 10 glucose. Whole-cell patch-clamp recordings were performed at −60 mV with an Axoclamp 200B (Molecular Devices, Sunnyvale, CA, USA) or with HEKA EPC-10 (HEKA Elektronik GmbH, Reutlingen, Germany) amplifiers. […] Brief (3–5 s) pulses of agonist together with alkaloids were applied to cells. Stock solutions of the alkaloids were prepared in high purity distilled water. Aliquots of these stock solutions were diluted in reservoirs containing extracellular solution. […] The concentration–response curve parameters for the alkaloid inhibition (IC50, nH, and the maximal current inhibition) were obtained from the fitted curve of normalized concentration–response data points to the equation Iagonist = Imax (agonist)nH/((agonist)nH + (EC50)nH). The IC50 curves are best-fit mean ± SE from pooled data. […] The concentration of agonist corresponds to the sub-saturating agonist concentration used to obtain the IC50 for each alkaloid on a given GlyR subtype.
# α1GlyR G160E = target: T2, α1GlyR G160E (Rattus norvegicus, UniProt P07727, G188E); assay type: cell-based
# T2 construct: expressed in transfected cells; host or cells: HEK293 (ATCC CRL-1573)
# T2 sequence (P07727 29-457 G188E): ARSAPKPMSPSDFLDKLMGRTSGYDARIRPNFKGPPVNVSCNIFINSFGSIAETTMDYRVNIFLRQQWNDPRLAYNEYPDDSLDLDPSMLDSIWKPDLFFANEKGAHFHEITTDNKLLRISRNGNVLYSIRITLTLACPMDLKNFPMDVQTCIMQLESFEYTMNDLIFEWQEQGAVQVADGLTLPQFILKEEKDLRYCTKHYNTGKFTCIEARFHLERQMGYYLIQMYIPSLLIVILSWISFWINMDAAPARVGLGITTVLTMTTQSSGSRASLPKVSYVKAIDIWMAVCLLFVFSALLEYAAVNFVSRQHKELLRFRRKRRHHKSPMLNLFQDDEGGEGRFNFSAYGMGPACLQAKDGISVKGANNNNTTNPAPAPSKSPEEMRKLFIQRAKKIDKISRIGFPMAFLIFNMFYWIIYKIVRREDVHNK
# Experimental: as §1
# In brief, patch electrodes (3–4 MΩ) were pulled from borosilicate glasses in a PC-100 puller (Narishige, Tokyo, Japan); then, they were filled with an intracellular solution, which contained (in mM) 120 CsCl, 8 EGTA, 10 HEPES (pH 7.4), 4 MgCl2, 0.5 GTP, and 2 ATP. The extracellular solution contained (in mM) 140 NaCl, 5.4 KCl, 2.0 CaCl2, 1.0 MgCl2, 10 HEPES (pH 7.4), and 10 glucose. Whole-cell patch-clamp recordings were performed at −60 mV with an Axoclamp 200B (Molecular Devices, Sunnyvale, CA, USA) or with HEKA EPC-10 (HEKA Elektronik GmbH, Reutlingen, Germany) amplifiers. […] Brief (3–5 s) pulses of agonist together with alkaloids were applied to cells. Stock solutions of the alkaloids were prepared in high purity distilled water. Aliquots of these stock solutions were diluted in reservoirs containing extracellular solution. […] The concentration–response curve parameters for the alkaloid inhibition (IC50, nH, and the maximal current inhibition) were obtained from the fitted curve of normalized concentration–response data points to the equation Iagonist = Imax (agonist)nH/((agonist)nH + (EC50)nH). The IC50 curves are best-fit mean ± SE from pooled data. […] The inhibition constant (Ki) was calculated using the Cheng–Prusoff equation (Ki = IC50/((2 + ([Agonist]/EC50)^nH)^1/nH − 1). The concentration of agonist corresponds to the sub-saturating agonist concentration used to obtain the IC50 for each alkaloid on a given GlyR subtype.
smiles,measurement,setting,value
C=C[C@]12CN(C)[C@@H]3[C@H]4CO[C@H](C[C@H]41)[C@]1(C(=O)Nc4ccccc41)[C@@H]32 [gelsemine],effect on glycine-evoked currents (in words),"chimeric α2α1 GlyR; 50 μM gelsemine, 65 μM glycine",inhibitory effect
same,alkaloid sensitivity of glycine-evoked currents (in words),"α1GlyR G160E; G160E, gelsemine 10 μM or 200 μM, 1 mM glycine",insensitive
"NCC(=O)O [glycine, reference compound]",EC50,chimeric α2α1 GlyR; read-out: EC50 of agonist,104 ± 9 µM
C=C[C@@]12CN(C)[C@H]3C[C@]14C(=Nc1ccccc14)[C@H]1C[C@@H]2[C@@H]3CO1 [koumine],alkaloid sensitivity of glycine-evoked currents (in words),α1GlyR G160E,not exert detectable effects

# — article PMC10970644, “Molecular Pharmacology of Gelsemium Alkaloids on Inhibitory Receptors” (International Journal of Molecular Sciences, 2024)
